Experimental data as given in US20230105108A1, “COMPOUNDS FOR THE TREATMENT OF BACTERIAL INFECTIONS AND POTENTIATION OF ANTIBIOTICS” (GEORGIA STATE UNIVERSITY RESEARCH FOUNDATION, INC., priority 2019, published 2023).
Counter-ions that a name gives are not always drawn. Like-named read-outs stand apart in the source and are kept apart here.

What was measured:
M. smegmatis = test: MIC on mycobacteria; assay type: cell-based, Mycobacterium smegmatis
B. subtilis = test: MIC determination and sensitization fold on B. subtilis; assay type: cell-based; settings: B. subtilis; for MIC: compound alone, read-out: MIC; for Sensitization fold: erythromycin
E. coli (ATCC 25922) = test: MIC determination, sensitization fold and FIC index on E. coli; assay type: cell-based; settings: for MIC of AB with MD-124: MD-124 concentration 5 μg/ml
Procedure, shortened: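 E. coli in cation-adjusted Mueller Hinton II, 5×10^5 CFU/ml, 24 h at 37 °C shaking; rifampicin two-fold serial dilutions with or without fixed sensitizer (10 μM).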

K. pneumoniae (43816) = test: MIC, sensitization fold and FIC index on K. pneumoniae; assay type: cell-based; settings: for MIC of AB with 5 μg/ml MD-124: K. pneumoniae; for Sensitization fold with 5 μg/ml MD-124: K. pneumoniae towards the antibiotic
[1] = system: A. baumannii (ATCC 17978); test: MIC, sensitization fold and FIC index on A. baumannii; assay type: cell-based; settings: A. baumannii towards the antibiotic
[2] = system: NDM-1 expressing E. coli strain; test: microbe, parasite or virus in culture; assay type: cell-based; settings: NDM-1 expressing E. coli towards the antibiotic
[3] = Cytotoxicity in H9c2 cells (CCK-8); assay type: cell-based; settings: rat, H9c2 cells
Procedure, shortened: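 H9c2 cells were grown in DMEM with 10% FBS, seeded the day before, and exposed to a range of di-amidine concentrations for 24 h at 37 °C, 5% CO2. Viability was read by CCK-8 after 3 h at 37 °C as absorbance at 450 nm.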

E. coli = test: Sensitization of E. coli (sensitization fold), Example 2; assay type: cell-based; settings: compound at 10 μM
Description: The sensitization fold of select compounds of the present invention was determined. E. coli bacteria were cultured in nutrient broth at 37° C. overnight prior to treatment. […] Bacterial density was measured based on OD600.

[4] = E. coli towards the antibiotic, MD-124 5 μg/ml
[5] = Escherichia coli, ATCC25922, 24 h, E. coli (wild type), antibiotic alone, read-out: MIC of AB only

For “1, 4-Bis [((4-amidino)-2-methoxy)-phenoxy methyl]2-fluorobenzene dihydrochloride [MD-104]”, the MIC on mycobacteria (M. smegmatis; M. smegmatis) was 6 to 12 µM, the MIC (B. subtilis) was 25 µM and the Sensitization fold (B. subtilis; compound at 6 μM) was 2-fold at 6. The Sensitization fold (B. subtilis; compound at 12 μM) was 8-fold at 12 μM, the MIC (E. coli (ATCC 25922); E. coli, compound alone, read-out: MIC) was 50 µM and the Sensitization (E. coli (ATCC 25922); E. coli, rifampicin, compound up to 25 μM) was “No effect up to 25 μM”.

For O=C(N[C@H](CO)[C@H](O)c1ccc([N+](=O)[O-])cc1)C(Cl)Cl [Chloramphenicol], the “MIC of AB with 5 μg/ml MD-124” value (K. pneumoniae (43816)) was 1.6 µg/mL, the “Sensitization fold with 5 μg/ml MD-124” value (K. pneumoniae (43816)) was >64 fold and the “Sensitization fold with 5 μg/ml MD-124” value [1] was 4 fold. The Sensitization fold (E. coli (ATCC 25922); [4]) was 8 fold, the “MIC of AB with MD-124” value (E. coli (ATCC 25922); E. coli) was 1.6 µg/mL and the MIC (E. coli (ATCC 25922); Escherichia coli, ATCC25922, 24 h, read-out: MIC of AB only) was 12.5 µg/mL. For the same compound, the “Sensitization fold with 5 μg/ml MD-124” value [2] was 8 fold.

For CCC[C@@H]1C[C@@H](C(=O)N[C@@H]([C@H]2O[C@H](SC)[C@H](O)[C@@H](O)[C@H]2O)[C@H](C)Cl)N(C)C1 [Clindamycin, reference compound], the “MIC of AB with 5 μg/ml MD-124” value (K. pneumoniae (43816)) was 25 µg/mL, the “MIC of AB with MD-124” value (E. coli (ATCC 25922); E. coli) was 3.2 µg/mL and the MIC (E. coli (ATCC 25922); [5]) was 200 µg/mL.

In the case of N=C(N)c1ccc(-c2ccc3[nH]cc(-c4nc5ccc(C(=N)N)cc5[nH]4)c3c2)cc1 [Compound U, 3-(5-Amidinobenzimidazol-2-yl)-5-(4-amidinophenyl)indole acetate salt], the IC50 at 24 h ([3]; H9c2 cells (ATCC CRL-1446), 24 hours) was 100 µM and the “Sensitization ability: fold sensitization of E. coli towards rifampicin” value (E. coli) was “At 10 μM, sensitize E. coli towards rifampicin for 32-fold;”.

For N=C(N)c1ccc(OCc2cccc(COc3ccc(C(=N)N)cc3)c2F)cc1 [DB2573, 1,3-Bis{(4-amidino)-phenoxymethyl}-2-fluorobenzene dihydrochloride], the MIC (M. smegmatis; Mycolicibacterium smegmatis, read-out: MIC on mycobacteria) was 12 µM, the CC50 at 24 h ([3]; H9c2 cell line) was 50 µM and the Sensitization fold (B. subtilis; compound at 12 μM) was 4-fold at 12 μM. The MIC (B. subtilis; Bacillus subtilis, 24 h) was 25 µM, the Sensitization fold (E. coli (ATCC 25922); E. coli, rifampicin, compound at 12 μM) was 32-fold at 12 μM and the MIC (E. coli (ATCC 25922); Escherichia coli, ATCC25922, 24 h) was 25 µM.

In the case of CC(=O)O[C@H]1C[C@@]2(C)[C@@H](C[C@@H](O)[C@H]3[C@@]4(C)CC[C@@H](O)[C@@H](C)[C@@H]4CC[C@@]32C)/C1=C(\CCC=C(C)C)C(=O)O [Fusidic acid, reference compound], the “MIC of AB with 5 μg/ml MD-124” value (K. pneumoniae (43816)) was 25 µg/mL, the “Sensitization fold with 5 μg/ml MD-124” value (K. pneumoniae (43816)) was 4 fold and the “Sensitization fold with 5 μg/ml MD-124” value [1] was 128 fold. For the same compound, the Sensitization fold (E. coli (ATCC 25922); [4]) was 32 fold, the “MIC of AB with MD-124” value (E. coli (ATCC 25922); E. coli) was 6.25 µg/mL and the MIC (E. coli (ATCC 25922); [5]) was > 200 µg/mL.
